The values below are quoted from earlier work in publication PMC9686322 (Frontiers in Neurology, 2022).

Details of data set [1]: method as in PMID 15956161, PMID 10626097, PMID 21080186.
On the set-up of data set [2]: method as in PMID 29847694.

Consider `N[C@@H](Cc1ccc(O)c(O)c1)C(=O)O` [levodopa], for which the “Threshold plasma concentration to achieve sustained relief of PD symptoms” value in data set [1] was “about 1,000 ng/ml”. The Plasma half-life in data set [2] was 1.5 to 2.5 h.
